# In PubChem BioAssay (NCI):
#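 Interpolation was linear, between the two tested concentrations surrounding the appropriate level; five concentrations were tested over 48 hours in 96-well plates. Here, GI50 denotes the concentration required for 50% inhibition of growth. TGI is the concentration that stops growth completely.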
# Legend:
# Assay in all cases: NCI tumour cell line growth inhibition, 48 h
# ACHN renal = test system: ACHN renal
# M14 melanoma = test system: M14 melanoma
# SR leukemia = test system: SR leukemia
# HCC-2998 colon = test system: HCC-2998 colon
# SK-MEL-5 melanoma = test system: SK-MEL-5 melanoma
# DU-145 prostate = test system: DU-145 prostate
# MOLT-4 leukemia = test system: MOLT-4 leukemia
# HOP-92 NSCLC = test system: HOP-92 NSCLC
# MDA-MB-231 breast = test system: MDA-MB-231 breast
# PC-3 prostate = test system: PC-3 prostate
SMILES,GI50 (ACHN renal),TGI (ACHN renal),GI50 (M14 melanoma),TGI (M14 melanoma),TGI (SR leukemia),GI50 (HCC-2998 colon),TGI (HCC-2998 colon),TGI (SK-MEL-5 melanoma),GI50 (DU-145 prostate),TGI (DU-145 prostate),GI50 (MOLT-4 leukemia),TGI (MOLT-4 leukemia),GI50 (HOP-92 NSCLC),TGI (HOP-92 NSCLC),GI50 (MDA-MB-231 breast),TGI (MDA-MB-231 breast),GI50 (PC-3 prostate),TGI (PC-3 prostate),GI50 (SR leukemia),GI50 (SK-MEL-5 melanoma)
C=C1C[C@](OC)([C@H](O)C(=O)N[C@@H](OC)[C@@H]2C[C@@H](O)C(C)(C)[C@@H](C[C@@H](COC)OC)O2)O[C@H](C)[C@@H]1C,0.00233 µM,0.0114 µM,0.00178 µM,0.0041 µM,> 1 µM,0.00101 µM,0.00285 µM,0.000262 µM,0.00145 µM,0.00496 µM,0.00437 µM,> 1 µM,0.00286 µM,0.00889 µM,0.00286 µM,0.00837 µM,,,,
CC(C)c1ccccc1NC(=O)C(=O)Cc1nc2ccccc2s1,,> 100 µM,,> 100 µM,> 100 µM,,> 100 µM,> 100 µM,,,,> 100 µM,,> 100 µM,,,,,,
O=C(CO)CC(=O)C(=O)Nc1nc([N+](=O)[O-])cs1,,> 100 µM,,> 100 µM,> 100 µM,,> 100 µM,> 100 µM,,,,> 100 µM,,,,,,,,
Cc1cc2c(=O)n(-c3ccc(F)cc3)c(C)nc2c(C(=O)O)c1C,,> 100 µM,,> 100 µM,> 100 µM,,> 100 µM,> 100 µM,,,,> 100 µM,,> 100 µM,,,,,,
N/N=C1\C(=O)N(C2CCCCC2)C(=O)C1C(=O)NC1CCCCC1 (configuration not stated),,> 100 µM,,> 100 µM,> 100 µM,,> 100 µM,> 100 µM,,,,> 100 µM,,> 100 µM,,,,,,
COc1ccc(/C(=N/NC(=O)NN)C(c2ccc(OC)cc2)C2(O)CNc3c(Cl)cc(Cl)cc32)cc1 (configuration not stated),,> 100 µM,,> 100 µM,,,> 100 µM,> 100 µM,,,,> 100 µM,,> 100 µM,,,,,,
CC(=O)C1CC=C(C)CC1 (configuration not stated),,> 100 µM,,> 100 µM,> 100 µM,,> 100 µM,> 100 µM,,,,> 100 µM,,> 100 µM,,,,,,
Cc1cc(N(CCC#N)S(C)(=O)=O)ccc1C=O,,> 100 µM,,> 100 µM,> 100 µM,,> 100 µM,> 100 µM,,,,> 100 µM,,,,,,,,
COc1ccc(-c2ccc(/C=N/n3c(COc4ccccc4Cl)nn(CN4CCN(C)CC4)c3=S)o2)c([N+](=O)[O-])c1,23.1 µM,50.1 µM,17.7 µM,34.2 µM,,14.5 µM,27.7 µM,,,,,,21 µM,70.7 µM,14.6 µM,37.5 µM,15.3 µM,58.2 µM,,
CC1C[C@H](OC(N)=O)C(C)CC1=O (some centres not stated),,> 100 µM,,> 100 µM,,,> 100 µM,> 100 µM,,,,> 100 µM,,> 100 µM,,,,,,
CC(=O)N1CC(Nc2ccc(OC(F)(F)F)cc2)=CC1=O,8.27 µM,> 100 µM,0.535 µM,6.71 µM,52.2 µM,3.22 µM,53.2 µM,12.1 µM,3.76 µM,> 100 µM,4.21 µM,> 100 µM,,,,,2.99 µM,> 100 µM,0.532 µM,0.377 µM
Cc1ccc(C2NC(=S)NC3=C2CCOc2c3ccc3ccccc23)cc1 (configuration not stated),44 µM,> 100 µM,79 µM,> 100 µM,,10.8 µM,> 100 µM,,,,7.97 µM,> 100 µM,39.8 µM,> 100 µM,26.3 µM,> 100 µM,22.2 µM,> 100 µM,,
CCn1c2c(n(CC)c1=S)-c1c(n(CC)c(=S)n1CC)SSSS2,,16 µM,,18.1 µM,9.17 µM,,49.4 µM,43.1 µM,,> 100 µM,,11.1 µM,,9.71 µM,,10 µM,,,,
COC1(OC)CC2C=C(S(=O)(=O)c3ccccc3)C1N(Cc1ccccc1)C2=O (configuration not stated),,> 100 µM,,67.1 µM,> 100 µM,,> 100 µM,> 100 µM,,,,> 100 µM,,95.5 µM,,,,,,
CC(=O)c1c(C(F)(F)F)n([O-])c2ccc(Cl)cc2[n+]1=O,0.69 µM,4.96 µM,1.78 µM,5.05 µM,,1.03 µM,2.41 µM,2.65 µM,0.158 µM,0.576 µM,,1.54 µM,1.23 µM,2.9 µM,1.3 µM,3.27 µM,,2.79 µM,,0.822 µM
COc1cc(/C=C/c2cc(/C=C/c3ccc(O)c(OC)c3)n(-c3c(C)cccc3C)c(=O)n2)ccc1O,0.399 µM,10.6 µM,,,,2.28 µM,9.15 µM,1.9 µM,,,,,2.07 µM,5.51 µM,1.76 µM,9.95 µM,1.17 µM,6.52 µM,,0.559 µM
CCOC(=O)N1CCc2cc(OC)c(OC)c3c2C1CC3=O (configuration not stated),,> 100 µM,,> 100 µM,> 100 µM,,> 100 µM,> 100 µM,,,,> 100 µM,,> 100 µM,,,,,,
COC(=O)c1ccc2c(c1)nc(-c1cc3ccccc3[nH]c1=O)n2-c1cc(C(C)(C)C)[nH]n1,> 100 µM,> 100 µM,,,> 100 µM,,,> 100 µM,2.55 µM,> 100 µM,0.793 µM,> 100 µM,,,4.13 µM,> 100 µM,2.27 µM,> 100 µM,12.8 µM,2.61 µM
Brc1ccc(-c2nnc(-c3nn(-c4ccccc4)c4nc5ccccc5nc34)o2)cc1,,> 100 µM,,> 100 µM,> 100 µM,,> 100 µM,84.5 µM,,,,> 100 µM,,> 100 µM,,,,,,
N#CC(C(=O)/C(=N\Nc1nc(=S)[nH]n1N)C(C#N)c1ccc(Cl)cc1)c1ccc(Cl)cc1 (configuration not stated),,> 100 µM,,> 100 µM,,,> 100 µM,,,,,,,> 100 µM,,,,,,
Cc1cccc(Oc2nccc(-c3c(-c4ccc(F)cc4)ncn3C3CCNCC3)n2)c1C,6.11 µM,> 25 µM,4.8 µM,9.01 µM,,4.22 µM,8.96 µM,6.92 µM,> 11.4 µM,> 16.3 µM,7.17 µM,17.6 µM,,,5.42 µM,13.9 µM,9.94 µM,> 23.2 µM,,3.61 µM
